Literature values, collected in patent EP4613273A1, “TREATMENT OF BONE LOSS” (priority 2024, dated 2025).

Target: T1, cathepsin K (Homo sapiens, UniProt P43235)
T1 construct: host or cells: patients with postmenopausal osteoporosis (endogenous enzyme)
T1 sequence (P43235 115-329): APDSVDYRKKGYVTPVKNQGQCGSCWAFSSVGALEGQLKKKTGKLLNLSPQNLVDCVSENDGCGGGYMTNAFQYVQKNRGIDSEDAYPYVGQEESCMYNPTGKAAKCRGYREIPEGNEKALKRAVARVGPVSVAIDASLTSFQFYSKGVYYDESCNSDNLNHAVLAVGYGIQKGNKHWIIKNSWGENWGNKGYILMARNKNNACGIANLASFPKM
Conditions: cited from earlier work

**Q.** For `CC(C)(F)C[C@H](N[C@@H](c1ccc(-c2ccc(S(C)(=O)=O)cc2)cc1)C(F)(F)F)C(=O)NC1(C#N)CC1` [Odanacatib], which “adverse effects leading to termination of development” value is on record?
**A.** Its value is “cardio-cerebrovascular adverse effects”.
